In patent EP1984353B1, “AURORA KINASE MODULATORS AND METHOD OF USE” (Amgen, Inc, priority 2006, dated 2007) one finds IC50 data, which are given here for 20 compounds.

Where two headings read alike, the source gives them in different places.

The target in one experiment is T1, AuroraB (Homo sapiens, UniProt Q96GD4).
T1 construct: 20 µL of AuroraB FL His; His
The experiment can be described thus: AuroraB Homogeneous Time Resolved Fluorescent (HTRF) kinase assay. It is filed as biochemical. To be noted: average, read-out: AurB_ _IC50_IP (Avg). Here is the method:
AuroraB-Homogeneous Time Resolved Fluorescent (HTRF) Kinase Assay:
The AuroraB HTRF assay begins with AuroraB in the presence of ATP phosphorylating the biotinylated peptide Histone H3. The reaction incubates for about 90 min. the reaction is quentched by addition of detection reagents, which stop the reaction by diluting out the enzyme and chelating the metals due to the presence of EDTA. After addition, the assay is incubated for about 60 min to allow detection reagents to equilibrate.
The AuroraB HTRF assay comprises 1 µL of compound in 100% DMSO, 20 µL of ATP and biotinylated Histone H3, and 20 µL of AuroraB FL His for a final volume of 41 µL. The final concentration of Histone H3 is 0.1 µM. The final concentration of ATP is 23 µM (Km(app) = 23 µM+/-2.6) and the final concentration of AuroraB is 400 pM. Buffer conditions are as follows: 50mM HEPES pH 7.5, 5mM NaCl, 0.5mM MgCl, 0.5mM MnCl, 2mM DTT, 0.05% BSA.
The assay is quenched and stopped with 160 µL of detection reagent. Detection reagents are as follows: Buffer made of 50mM Tris, pH 7.5, 100mM NaCl, 3mM EDTA, 0.05% BSA, 0.1% Tween20. Added to this buffer prior to reading is Steptavidin allophycocyanin (SA-APC) at a final conc in the assay of 0.001 mg/mL, and europilated anti-phosphoHistoneH3 Ab (Eu-anti-HisH3) at a final conc of 0.064 nM.
The assay plate is read in either a Discovery or a RubyStar. The eu-anti-HisH3 is excited at 320 nm and emits at 615 nm to excite the SA-APC which in turn emits at 655 nm. The ratio of SA-APC at 655 nm (excited due to close proximity to the Eu-anti-HisH3 because of phosphorylation of the peptide) to free Eu-anti-HisH3 at 615 nm will give substrate phosphorylation.
(In general: In TR-FRET formats the signal depends on donor and acceptor labels being close together.)

In a further experiment the target is T2, AuroraA-TPX2 (Homo sapiens, UniProt O14965).
T2 construct: 20 µL of AuroraA-TPX2 KD GST; GST
T2 sequence (O14965 133-383 limits assumed): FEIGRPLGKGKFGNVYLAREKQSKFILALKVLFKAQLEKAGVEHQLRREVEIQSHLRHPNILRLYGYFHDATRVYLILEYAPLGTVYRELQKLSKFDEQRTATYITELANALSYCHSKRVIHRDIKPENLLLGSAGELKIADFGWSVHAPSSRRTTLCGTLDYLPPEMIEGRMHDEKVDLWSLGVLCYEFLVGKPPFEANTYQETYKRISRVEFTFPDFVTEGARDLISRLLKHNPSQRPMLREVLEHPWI
T2 sequence (Q9ULW0 1-43 partner limits assumed): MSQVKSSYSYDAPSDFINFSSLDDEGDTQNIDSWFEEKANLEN
Nature of the experiment: AuroraA-TPX2 Homogeneous Time Resolved Fluorescent (HTRF) kinase assay. It is filed as biochemical. The settings on record: average, read-out: AurA/TP X2_ IC50_IP (Avg). Here is the method: AuroraA-TPX2-Homogeneous Time Resolved Fluorescent (HTRF) Kinase Assay:
The Aurora-A HTRF assay begins with Aurora-A in the presence of ATP phosphorylating the biotinylated peptide PLK. The reaction incubates for about 120 min. Detection reagents are added to quench the reaction. These agents stop the reaction by diluting out the enzyme and chelating the metals due to the presence of EDTA. After addition, the assay is incubated overnight to allow the detection reagents to equilibrate.
The final concentration of PLK is about 1 µM. […] Buffer conditions are as follows: 60mM HEPES pH 7.5, 25mM NaCl, 10mM MgCl, 2mM DTT, 0.05% BSA.
The assay is quenched and stopped with 160 µL, of detection reagent. Detection reagents are as follows: Buffer made of 50mM Tris, pH 7.5, 100mM NaCl, 3mM EDTA, 0.05% BSA, 0.1% Tween20. Added to this buffer prior to reading is Steptavidin allophycocyanin (SA-APC) at a final conc in the assay of 0.0005 mg/mL, and europilated anti-phosphoPLK Ab (Eu-anti-PLK) at a final conc of 0.02 nM.
The assay plate is read in either a Discovery or a RubyStar. The eu-anti-PLK is excited at 320 nm and emits at 615 nm to excite the SA-APC which in turn emits at 655 nm.

Setting [1] is: given as numbers, unit inferred.

T1 sequence (Q96GD4 whole entry): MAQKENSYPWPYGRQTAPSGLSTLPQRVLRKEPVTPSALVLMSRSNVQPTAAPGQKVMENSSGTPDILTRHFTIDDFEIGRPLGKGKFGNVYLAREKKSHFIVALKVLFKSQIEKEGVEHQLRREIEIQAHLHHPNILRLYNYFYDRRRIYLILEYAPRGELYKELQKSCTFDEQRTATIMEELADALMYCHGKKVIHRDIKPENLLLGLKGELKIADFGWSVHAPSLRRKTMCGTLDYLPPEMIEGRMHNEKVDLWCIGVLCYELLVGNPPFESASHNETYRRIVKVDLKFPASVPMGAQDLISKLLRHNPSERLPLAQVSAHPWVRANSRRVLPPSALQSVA

Consider `Nc1nccc(-c2ccccc2Oc2ccc(Nc3nnc(-c4ccccc4)c4ccccc34)cc2)n1` [compound 254, N-(4-((2-(2-amino-4-pyrimidinyl)phenyl)oxy)phenyl)-4-phenyl-1-phthalazinamine], for which the IC50 on AuroraB (given as class symbols) and at AuroraA-TPX2 (given as class symbols) was ≤ 100 nM in each case.
Turning to `CNc1cc(-c2cccnc2Nc2ccc(Nc3nnc(-c4ccccc4)c4ccccc34)cc2)ncn1` [compound 255, N-(3-(6-(methylamino)-4-pyrimidinyl)-2-pyridinyl)-N'-(4-phenyl-1-phthalazinyl)-1,4-benzenediamine], the IC50 at AuroraB (given as class symbols) is ≤ 100 nM; at AuroraA-TPX2 (given as class symbols), 100 to 500 nM.
In the case of `C[C@@H](O)c1ccc(-c2nnc(Nc3ccc(Oc4ncccc4-c4ccnc(N)n4)cc3)c3ccccc23)cc1` [compound 256, (1R)-1-(4-(4-((4-((3-(2-amino-4-pyrimidinyl)-2-pyridinyl)oxy)phenyl)amino)-1-phthalazinyl)phenyl)ethanol], the IC50 at AuroraB (setting [1]) is 1.8 nM; at AuroraA-TPX2 (setting [1]) it was 149 nM.
With `C[C@H](O)c1ccc(-c2nnc(Nc3ccc(Oc4ncccc4-c4ccnc(N)n4)cc3)c3ccccc23)cc1` [compound 257, (1S)-1-(4-(4-((4-((3-(2-amino-4-pyrimidinyl)-2-pyridinyl)oxy)phenyl)amino)-1-phthalazinyl)phenyl)ethanol], the IC50 on AuroraB (given as class symbols) and at AuroraA-TPX2 (given as class symbols) was ≤ 100 nM in each case.
For the compound `CN1C[C@@H]2C[C@H]1CN2c1nnc(Nc2ccc(Oc3ncccc3-c3ccnc(N)n3)cc2)c2ccccc12` [compound 258, N-(4-((3-(2-amino-4-pyrimidinyl)-2-pyridinyl)oxy)phenyl)-4-((1S,4S)-5-methyl-2,5-diazabicyclo[2.2.1]hept-2-yl)-1-phthalazinamine], the IC50 on AuroraB (given as class symbols) fell in the range of 100 to 500 nM; on AuroraA-TPX2 (given as class symbols), 500 to 2500 nM.
`Nc1nccc(-c2cccnc2Oc2ccc(Nc3ncc(-c4ccc(Cl)cc4)c4ccccc34)cc2)n1` [compound 265, N-(4-((3-(2-amino-4-pyrimidinyl)-2-pyridinyl)oxy)phenyl)-4-(4-chlorophenyl)-1-isoquinolinamine]: the IC50 at AuroraB (given as class symbols) and on AuroraA-TPX2 (given as class symbols) was ≤ 100 nM in each case.
Regarding `Nc1nccc(-c2cccnc2Oc2ccc(Nc3ncc(-c4ccccc4)c4ccccc34)cn2)n1` [compound 266, N-(6-((3-(2-amino-4-pyrimidinyl)-2-pyridinyl)oxy)-3-pyridinyl)-4-phenyl-1-isoquinolinamine], the IC50 on AuroraB (given as class symbols) and at AuroraA-TPX2 (given as class symbols) was ≤ 100 nM in each case.
As to `c1ccc(-c2nnc(Nc3ccc(Oc4ncccc4-c4ccnc(NCCCN5CCCCC5)n4)nc3)c3ccccc23)cc1` [compound 267, 4-phenyl-N-(6-((3-(2-((3-(1-piperidinyl)propyl)amino)-4-pyrimidinyl)-2-pyridinyl)oxy)-3-pyridinyl)-1-phthalazinamine], the values for the IC50 at AuroraB (setting [1]) and at AuroraA-TPX2 (setting [1]) were 10.4 nM and 96.4 nM, respectively.
With `c1ccc(-c2nnc(Nc3ccc(Oc4ncccc4-n4ccnc4)cc3)c3ccccc23)cc1` [compound 268, N-(4-((3-(1H-imidazol-1-yl)-2-pyridinyl)oxy)phenyl)-4-phenyl-1-phthalazinamine], the IC50 on AuroraB (given as class symbols) and on AuroraA-TPX2 (given as class symbols) was 500 to 2500 nM each time.
For `CC(C)c1nnc(Nc2ccc(Oc3ncccc3-c3ccnc(N)n3)nc2)c2ccccc12` [compound 269, N-(6-((3-(2-amino-4-pyrimidinyl)-2-pyridinyl)oxy)-3-pyridinyl)-4-(1-methylethyl)-1-phthalazinamine], the IC50 on AuroraB (given as class symbols) and on AuroraA-TPX2 (given as class symbols) was ≤ 100 nM in each case.
For `Cc1cccc(-c2nnc(Nc3ccc(Oc4ncccc4-c4ccnc(N)n4)nc3)c3ccccc23)n1` [compound 270, N-(6-((3-(2-amino-4-pyrimidinyl)-2-pyridinyl)oxy)-3-pyridinyl)-4-(6-methyl-2-pyridinyl)-1-phthalazinamine], the IC50 at AuroraB (given as class symbols) and on AuroraA-TPX2 (given as class symbols) was ≤ 100 nM throughout.
For the compound `Nc1nccc(-c2cccnc2Oc2ccc(Nc3nnc(C4CCCCC4)c4ccccc34)cc2)n1` [compound 272, N-(4-((3-(2-amino-4-pyrimidinyl)-2-pyridinyl)oxy)phenyl)-4-cyclohexyl-1-phthalazinamine], the IC50 came to 5.5 nM at AuroraB (setting [1]) and 19.7 nM on AuroraA-TPX2 (setting [1]).
As to `CC(C)c1nnc(Nc2ccc(Oc3ncccc3-c3ccnc(N)n3)cc2)c2ccccc12` [compound 273, N-(4-((3-(2-amino-4-pyrimidinyl)-2-pyridinyl)oxy)phenyl)-4-(1-methylethyl)-1-phthalazinamine], the IC50 at AuroraB (given as class symbols) is ≤ 100 nM; at AuroraA-TPX2 (given as class symbols), 100 to 500 nM.
`Cc1cccc(-c2nnc(Nc3ccc(Oc4ncccc4-c4ccnc(NCCCN5CCN(C)CC5)n4)cc3)c3ccccc23)n1` [compound 275, N-(4-((3-(2-((3-(4-methyl-1-piperazinyl)propyl)amino)-4-pyrimidinyl)-2-pyridinyl)oxy)phenyl)-4-(6-methyl-2-pyridinyl)-1-phthalazinamine]: the IC50 worked out at 13.4 nM on AuroraB (setting [1]) and 94.9 nM at AuroraA-TPX2 (setting [1]).
With `Cc1cccc(-c2nnc(Nc3ccc(Oc4ncccc4-c4ccnc(NCCCN5CCCCC5)n4)cc3)c3ccccc23)n1` [compound 276, 4-(6-methyl-2-pyridinyl)-N-(4-((3-(2-((3-(1-piperidinyl)propyl)amino)-4-pyrimidinyl)-2-pyridinyl)oxy)phenyl)-1-phthalazinamine], the IC50 is ≤ 100 nM on AuroraB (given as class symbols) and 100 to 500 nM on AuroraA-TPX2 (given as class symbols).
Regarding `Cc1cccc(-c2nnc(Nc3ccc(Oc4ncccc4-c4ccnc(NCCCN5CCNCC5)n4)cc3)c3ccccc23)n1` [compound 277, 4-(6-methyl-2-pyridinyl)-N-(4-((3-(2-((3-(1-piperazinyl)propyl)amino)-4-pyrimidinyl)-2-pyridinyl)oxy)phenyl)-1-phthalazinamine], the IC50 on AuroraB (setting [1]) amounted to 2.7 nM; on AuroraA-TPX2 (setting [1]), 126 nM.
As to `c1ccc(-c2nnc(Nc3ccc(Oc4ncccc4-c4ccnc5c4CCCN5)cc3)c3ccccc23)cc1` [compound 283, 4-phenyl-N-(4-((3-(5,6,7,8-tetrahydro-1,8-naphthyridin-4-yl)-2-pyridinyl)oxy)phenyl)-1-phthalazinamine], the IC50 at AuroraB (given as class symbols) fell in the range of 100 to 500 nM; on AuroraA-TPX2 (given as class symbols), 500 to 2500 nM.
For `Cc1csc(-c2nnc(Nc3ccc(Oc4ncccc4-c4ccnc5c4CCCN5)cc3)c3ccccc23)n1` [compound 284, 4-(4-methyl-1,3-thiazol-2-yl)-N-(4-((3-(5,6,7,8-tetrahydro-1,8-naphthyridin-4-yl)-2-pyridinyl)oxy)phenyl)-1-phthalazinamine], the IC50 at AuroraB (setting [1]) came out at 191 nM; on AuroraA-TPX2 (setting [1]), 167 nM.
Take `Cc1cc(-c2ccccc2)nnc1Nc1ccc(Oc2ncccc2-c2ccnc3c2CCCN3)cc1` [compound 285, 4-methyl-6-phenyl-N-(4-((3-(5,6,7,8-tetrahydro-1,8-naphthyridin-4-yl)-2-pyridinyl)oxy)phenyl)-3-pyridazinamine]: the IC50 is 100 to 500 nM at AuroraB (given as class symbols) and 500 to 2500 nM on AuroraA-TPX2 (given as class symbols).
On to `c1ccc(-c2nnc(Nc3ccc(Oc4ncccc4-c4ccnc5c4CCN5)cc3)c3ccccc23)cc1` [compound 287, N-(4-((3-(2,3-dihydro-1H-pyrrolo[2,3-b]pyridin-4-yl)-2-pyridinyl)oxy)phenyl)-4-phenyl-1-phthalazinamine], for which the IC50 turned out to be 10.3 nM at AuroraB (setting [1]) and 83.3 nM at AuroraA-TPX2 (setting [1]).
